# Measured values from patent US10709709B2, “Substituted carbonucleoside derivatives useful as anticancer agents” (Pfizer Inc., priority 2016, dated 2020).
# Biological target: PRMT5/MEP50 protein complex (Homo sapiens (Human), UniProt O14744)
# Experiment: PRMT5 biochemical assay (3H-SAM methylation of H4(1-21) peptide, filter plate scintillation)
# Conditions: 10 nM PRMT5/MEP50 complex, 200 nM H4(1-21) peptide, 1 uM SAM, 25 minute incubation at room temperature
# Procedure: Biochemical Assay Methods
# Compounds were solubilized in DMSO and serially diluted, using 3-fold dilutions, into 100% DMSO at a concentration 50-fold greater than the desired assay concentration. Following dilution, 1 ul was added to an empty 96-well microtiter plate. PRMT5/MEP50 protein complex was combined with H4(1-21) peptide ([…]) in PRMT5 assay buffer (50 mM Tris pH 8.5, 50 mM NaCl, 5 mM MgCl2, 1 mM EDTA, 1 mM TCEP) and 44 ul was added to the microtiter plate containing compound. S-Adenosyl-L-methionine (SAM) was prepared by combining ^3H labelled SAM with unlabelled SAM in PRMT5 assay buffer such that the final SAM concentration was 10 uM and the specific activity was 0.2 uCi/ul. The reaction was initiated by adding 5 ul of SAM stock to the microtiter plate. The final reaction conditions were 10 nM PRMT5/MEP50 complex, 200 nM peptide and 1 uM SAM. Following a 25 minute incubation at room temperature, the reaction was stopped with the addition of 100 uL of 20% TCA. The 3H-peptide product was captured using a 96-well filter plate (MSIPN4B, Millipore) and washed 5 times with PBS buffer. Scintillation fluid (100 ul) was added to the dried filter plate and counted in a liquid scintillation counter. IC50 values were determined by fitting the data to the standard 4-parameter dose response equation using Pfizer proprietary software.
# Results for the biochemical assay of examples are summarized in Table 1, shown as IC50 values in μM.
# PRMT5/MEP50 protein complex, sequence (O14744 other isoform, or with tags, fused parts or gaps): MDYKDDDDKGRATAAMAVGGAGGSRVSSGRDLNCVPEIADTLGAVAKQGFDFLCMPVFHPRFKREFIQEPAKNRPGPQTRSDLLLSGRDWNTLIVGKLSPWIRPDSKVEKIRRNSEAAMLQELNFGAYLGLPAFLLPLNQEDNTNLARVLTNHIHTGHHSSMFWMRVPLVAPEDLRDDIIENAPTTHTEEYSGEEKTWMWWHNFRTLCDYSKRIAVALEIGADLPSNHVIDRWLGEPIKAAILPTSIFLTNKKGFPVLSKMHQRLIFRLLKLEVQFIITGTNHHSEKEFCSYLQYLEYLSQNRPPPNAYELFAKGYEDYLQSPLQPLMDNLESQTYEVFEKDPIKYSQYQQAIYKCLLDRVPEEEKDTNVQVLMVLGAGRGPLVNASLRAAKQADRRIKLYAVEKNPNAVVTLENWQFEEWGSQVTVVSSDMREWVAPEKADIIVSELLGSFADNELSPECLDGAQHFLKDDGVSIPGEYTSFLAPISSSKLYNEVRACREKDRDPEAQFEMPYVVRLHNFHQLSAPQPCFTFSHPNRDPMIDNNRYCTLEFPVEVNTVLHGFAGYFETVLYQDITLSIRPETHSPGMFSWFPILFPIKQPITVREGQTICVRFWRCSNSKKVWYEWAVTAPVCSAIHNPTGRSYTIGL
# PRMT5/MEP50 protein complex, sequence (Q9BQA1 whole entry partner): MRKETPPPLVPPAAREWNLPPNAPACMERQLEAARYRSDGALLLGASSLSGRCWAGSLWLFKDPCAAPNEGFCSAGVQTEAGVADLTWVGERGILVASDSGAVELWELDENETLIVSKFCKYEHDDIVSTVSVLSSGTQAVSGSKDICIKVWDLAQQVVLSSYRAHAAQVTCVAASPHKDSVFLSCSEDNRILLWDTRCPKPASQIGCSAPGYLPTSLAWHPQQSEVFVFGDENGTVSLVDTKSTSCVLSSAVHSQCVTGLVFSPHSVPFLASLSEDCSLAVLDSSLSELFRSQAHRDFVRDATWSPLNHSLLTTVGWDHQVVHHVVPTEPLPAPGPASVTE
row,Structure (SMILES),IC50 [nM]
1,"Cc1ncnc2c1ccn2[C@@H]1C[C@H](Oc2ccc(F)cc2CN(C)C)[C@@H](O)[C@H]1O [Example 71, (1S,2S,3S,5R)-3-(2-((dimethylamino)methyl)-4-fluorophenoxy)-5-(4-methyl-7H-pyrrolo[2,3-d]pyrimidin-7-yl)cyclopentane-1,2-diol]",69
2,"CNCc1cc(F)ccc1O[C@H]1C[C@@H](n2ccc3c(C)ncnc32)[C@H](O)[C@@H]1O [Example 72, (1S,2S,3S,5R)-3-(4-fluoro-2-((methylamino)methyl)phenoxy)-5-(4-methyl-7H-pyrrolo[2,3-d]pyrimidin-7-yl)cyclopentane-1,2-diol]",22
3,"Cc1ncnc2c1ccn2[C@@H]1C[C@H](Oc2c(F)cccc2F)[C@@H](O)[C@H]1O [Example 74, (1S,2S,3S,5R)-3-(2,6-difluorophenoxy)-5-(4-methyl-7H-pyrrolo[2,3-d]pyrimidin-7-yl)cyclopentane-1,2-diol]",63300
4,"Cc1ncnc2c1ccn2[C@H]1C[C@H](Oc2cccc3c2C(=O)NCC3)[C@@H](O)[C@H]1O [Example 76, 8-(((1S,2S,3S,4S)-2,3-dihydroxy-4-(4-methyl-7H-pyrrolo[2,3-d]pyrimidin-7-yl)cyclopentyl)oxy)-3,4-dihydroisoquinolin-1(2H)-one]",144000
5,"Cc1ncnc2c1ccn2C1C[C@H](Oc2cccc3c2CNC3)[C@@H](O)[C@H]1O (stereo partly drawn) [Example 79, (1S,2S,3S,5R)-3-(2,3-dihydro-1H-isoindol-4-yloxy)-5-(4-methyl-7H-pyrrolo[2;3-d]pyrimidin-7-yl)cyclopentane-1,2-diol]",83
6,"Cc1ncnc2c1ccn2[C@@H]1C[C@H](Oc2cccc3c2CCNC3)[C@@H](O)[C@H]1O [Example 80, (1S,2S,3R,5S)-3-(4-methyl-7H-pyrrolo[2,3-d]pyrimidin-7-yl)-5-((1,2,3,4-tetrahydroisoquinolin-5-yl)oxy)cyclopentane-1,2-diol]",130
7,"Cc1ncnc2c1ccn2[C@@H]1C[C@H](Oc2cccc3c2CCN(C)C3)[C@@H](O)[C@H]1O [Example 81, (1S,2S,3R,5S)-3-(4-methyl-7H-pyrrolo[2,3-d]pyrimidin-7-yl)-5-[(2-methyl-1,2,3,4-tetrahydroisoquinolin-5-yl)oxy]cyclopentane-1,2-diol]",1670
8,"Cc1ncnc2c1ccn2[C@@H]1C[C@H](Oc2cccc3c2CN(C)C3)[C@@H](O)[C@H]1O [Example 82, (1S,2S,3S,5R)-3-[(2-methyl-2,3-dihydro-1H-isoindol-4-yl)oxy]-5-(4-methyl-7H-pyrrolo[2,3-d]pyrimidin-7-yl)cyclopentane-1,2-diol]",991
9,"Cc1ncnc2c1ccn2[C@@H]1C[C@H](Oc2cccc3c2CN(C)CC3)[C@@H](O)[C@H]1O [Example 83, (1S,2S,3S,5R)-3-((2-methyl-1,2,3,4-tetrahydroisoquinolin-8-yl)oxy)-5-(4-methyl-7H-pyrrolo[2,3-d]pyrimidin-7-yl)cyclopentane-1,2-diol]",20
10,"Cc1ncc(O[C@H]2C[C@@H](n3ccc4c(C)ncnc43)[C@H](O)[C@@H]2O)c2c1CCNC2 [Example 96, (1S,2S,3S,5R)-3-((1-methyl-5,6,7,8-tetrahydro-2,6-naphthyridin-4-yl)oxy)-5-(4-methyl-7H-pyrrolo[2,3-d]pyrimidin-7-yl)cyclopentane-1,2-diol]",19
11,"Cc1ncnc2c1ccn2[C@@H]1C[C@H](Oc2cc(C(C)(C)O)cc3c2CNCC3)[C@@H](O)[C@H]1O [Example 97, (1S,2S,3S,5R)-3-((6-(2-hydroxypropan-2-yl)-1,2,3,4-tetrahydroisoquinolin-8-yl)oxy)-5-(4-methyl-7H-pyrrolo[2,3-d]pyrimidin-7-yl)cyclopentane-1,2-diol]",65
12,"Nc1ncnc2c1c(F)cn2[C@@H]1C[C@H](Oc2cccc3c2CNC3)[C@@H](O)[C@H]1O [Example 110, (1S,2S,3R,5S)-3-(4-amino-5-fluoro-7H-pyrrolo[2,3-d]pyrimidin-7-yl)-5-(2,3-dihydro-1H-isoindol-4-yloxy)cyclopentane-1,2-diol]",8
13,"CC(F)(F)c1cc2c(c(O[C@H]3C[C@@H](n4cc(F)c5c(N)ncnc54)[C@H](O)[C@@H]3O)c1)CNCC2 [Example 112, (1S,2S,3R,5S)-3-(4-amino-5-fluoro-7H-pyrrolo[2,3-d]pyrimidin-7-yl)-5-((6-(1,1-difluoroethyl)-1,2,3,4-tetrahydroisoquinolin-8-yl)oxy)cyclopentane-1,2-diol]",4
14,"Cc1cc(O[C@H]2C[C@@H](n3cc(F)c4c(N)ncnc43)[C@H](O)[C@@H]2O)c2c(c1F)CCNC2 [Example 113, (1S,2S,3R,5S)-3-(4-amino-5-fluoro-7H-pyrrolo[2,3-d]pyrimidin-7-yl)-5-((5-fluoro-6-methyl-1,2,3,4-tetahydroisoquinolin-8-yl)oxy)cyclopentane-1,2-diol]",1
15,"CN1Cc2cccc(O[C@H]3C[C@@H](n4cc(F)c5c(N)ncnc54)[C@H](O)[C@@H]3O)c2C1 [Example 115, (1S,2S,3R,5S)-3-(4-amino-5-fluoro-7H-pyrrolo[2,3-d]pyrimidin-7-yl)-5-[(2-methyl-2,3-dihydro-1H-isoindol-4-yl)oxy]cyclopentane-1,2-diol]",147

# Further lines, results first:
row,IC50 [nM],Structure (SMILES)
1,> 200000,"Cc1ncnc2c1ccn2[C@H]1C[C@@H](Oc2ccccc2C#N)[C@H](O)[C@@H]1O [Example 65, 2-(((1R,2R,3R,4S)-2,3-dihydroxy-4-(4-methyl-7H-pyrrolo[2,3-d]pyrimidin-7-yl)cyclopentyl)oxy)benzonitrile]"
2,> 200000,"Cc1ncnc2c1ccn2[C@H]1C[C@@H](Oc2ccc(F)cc2CN)[C@H](O)[C@@H]1O [Example 67, (1R,2R,3R,5S)-3-(2-(aminomethyl)-4-fluorophenoxy)-5-(4-methyl-7H-pyrrolo[2,3-d]pyrimidin-7-yl)cyclopentane-1,2-diol]"
3,> 200000,"Cc1ncnc2c1ccn2[C@@H]1C[C@H](Oc2ccc(F)cc2C#N)[C@@H](O)[C@H]1O [Example 68, 2-(((1S,2S,3S,4R)-2,3-dihydroxy-4-(4-methyl-7H-pyrrolo[2,3-d]pyrimidin-7-yl)cyclopentyl)oxy)-5-fluorobenzonitrile]"
4,> 200000,"Cc1ncnc2c1ccn2[C@H]1C[C@@H](Oc2ccc(F)cc2C#N)[C@H](O)[C@@H]1O [Example 69, 2-(((1R,2R,3R,4S)-2,3-dihydroxy-4-(4-methyl-7H-pyrrolo[2,3-d]pyrimidin-7-yl)cyclopentyl)oxy)-5-fluorobenzonitrile]"
5,13600,"Cc1ncnc2c1ccn2[C@@H]1C[C@H](Oc2ccc(F)cc2C(N)=O)[C@@H](O)[C@H]1O [Example 70, 2-(((1S,2S,3S,4R)-2,3-dihydroxy-4-(4-methyl-7H-pyrrolo[2,3-d]pyrimidin-7-yl)cyclopentyl)oxy)-5-fluorobenzamide]"
6,6880,"Cc1ncnc2c1ccn2[C@@H]1C[C@H](Oc2ccc(F)cc2)[C@@H](O)[C@H]1O [Example 73, (1S,2S,3S,5R)-3-(4-fluorophenoxy)-5-(4-methyl-7H-pyrrolo[2,3-d]pyrimidin-7-yl)cyclopentane-1,2-diol]"
7,37800,"Cc1cc(F)ccc1O[C@H]1C[C@@H](n2ccc3c(C)ncnc32)[C@H](O)[C@@H]1O [Example 75, (1S,2S,3S,5R)-3-(4-fluoro-2-methylphenoxy)-5-(4-methyl-7H-pyrrolo[2,3-d]pyrimidin-7-yl)cyclopentane-1,2-diol]"
